Measured values reported in patent publication US8084429B2, “Compounds and their analgesic applications” (priority 2002, dated 2011).
Starred links: 1 amine or outer side, 2 acyl side, 3 side chain; linkers in the order of their positions; H or OH if unused. Positions of bridges follow the written chain, without caps; N, C: chain ends. Non-standard residues stand in square brackets, D forms with d. Residues, ends and D or L forms follow the SMILES beside them. Chains are numbered I, II in the order given. NHNH = N(N[*:2])[*:1]

System: rat
Assay: observation of undesirable effects after intrathecal administration
Assay type: in vivo
Method: A silicone catheter was introduced into the intrathecal space of a rat in the cervical region of the spine, having an external diameter of 0.64 mm and an internal diameter of 0.3 mm. The 12 cm long catheter was prepared in the following way: at a distance of 7.5 cm from the end of the catheter, a flange was made around it with soft silicone glue. The remaining 4.5 cm stretch of the catheter was extended to the outside and connected to a 30G needle mounted on a 25 microliter Hamilton syringe. The implantation of the catheter was made under general anaesthesia. After shaving the coat from the shoulders and neck, the rat was placed in a stereotactic apparatus. The 1.5 cm long incision was made centrally, front to rear, along the axis of the spine. After reaching the muscles, they were prised apart and access to the basal membrane was prepared. The basal membrane was incised. The prepared catheter, filled with a sterile physiological saline solution, was inserted the through the incision in the membrane to a depth of 7.5 cm towards the rear, so that its end was found at the location of the L1. The muscle and skin were sutured. After recovery from general anaesthesia the rats were placed in separate cages. Biphaline was administered and measurements were made during the second day following the operation. All epidural injections were made at a constant volume of 10 microliters. Following the injection, the catheter was rinsed with 15 microliters of sterile physiological saline solution. Analgesis was measured in relation to a tail retraction test to which a thermal stimulus was applied in the form of a beam of light with a temperature of 55° C. The temperature and focus of the light was such that the time of reaction of the rat fit within the 2-3 second margin. The maximum time that the tail was agitated with the pain-stimulating light stimulus was set as 7 seconds, so as not to cause tail burns connected with a prolonged exposure of tissues to temperature. The pain-stimulating stimulus threshold was determined previous to administration of the compounds, as well as at the 5, 15, 30, 60 and 120 minutes following the administration. The degree of analgesis was expressed as a percent of the maximum possible effect (denoted as % MPE) according to the following equation: […]

## C[C@H](O)[C@@H](NC(=O)[C@@H](N)Cc1ccc(O)cc1)C(=O)NCC(=O)N[C@@H](Cc1ccccc1)C(=O)NNC(=O)[C@H](Cc1ccccc1)NC(=O)CNC(=O)[C@H](NC(=O)[C@@H](N)Cc1ccc(O)cc1)[C@H](C)O [(Tyr-D-Thr-Gly-Phe-NH—)2, (Tyr-D-Thr-Gly-Phe-NH-)2] (I: H-Y[dT]GF / II: H-Y[dT]GF; linker I:C-II:C via NHNH)
0.05 micrograms intrathecal
  undesirable effects: No undesirable effects were observed

## NC(=O)CC[C@@H](NC(=O)[C@@H](N)Cc1ccc(O)cc1)C(=O)NCC(=O)N[C@@H](Cc1ccccc1)C(=O)NNC(=O)[C@H](Cc1ccccc1)NC(=O)CNC(=O)[C@@H](CCC(N)=O)NC(=O)[C@@H](N)Cc1ccc(O)cc1 [(Tyr-D-Gln-Gly-Phe-NH—)2, (Tyr-D-Gln-Gly-Phe-NH-)2] (I: H-Y[dQ]GF / II: H-Y[dQ]GF; linker I:C-II:C via NHNH)
0.05 micrograms intrathecal
  undesirable effects: No undesirable effects were observed

## CSCC[C@@H](NC(=O)[C@@H](N)Cc1ccc(O)cc1)C(=O)NCC(=O)N[C@@H](Cc1ccccc1)C(=O)NNC(=O)[C@H](Cc1ccccc1)NC(=O)CNC(=O)[C@@H](CCSC)NC(=O)[C@@H](N)Cc1ccc(O)cc1 [(Tyr-D-Met-Gly-Phe-NH—)2, (Tyr-D-Met-Gly-Phe-NH-)2] (I: H-Y[dM]GF / II: H-Y[dM]GF; linker I:C-II:C via NHNH)
0.05 micrograms intrathecal
  undesirable effects: No undesirable effects were observed

## C[C@@H](NC(=O)[C@@H](N)Cc1ccc(O)cc1)C(=O)NCC(=O)N[C@@H](Cc1ccccc1)C(=O)NNC(=O)[C@H](Cc1ccccc1)NC(=O)CNC(=O)[C@@H](C)NC(=O)[C@@H](N)Cc1ccc(O)cc1 [biphaline, (Tyr-D-Ala-Gly-Phe-NH-)2]
0.005 micrograms, then 0.003 micrograms every half hour for 8 hours, intrathecal
  undesirable effects: No undesirable effects were observed
0.5 micrograms intrathecal
  undesirable effects: No undesirable effects were observed
25 micrograms intrathecal
  duration of stiffness: 4 h
25 micrograms intrathecal, after three minutes following the injection
  muscle stiffness: stiffness of limb and back muscles was observed
25 micrograms intrathecal, during stiffness
  respiratory ability: respiratory ability was maintained
Extremely high dosages, as much as a thousand-fold the minimal effective analgesic dose
  respiratory depression: did not cause respiratory depression

## CC(C)C[C@@H](NC(=O)[C@@H](N)Cc1ccc(O)cc1)C(=O)NCC(=O)N[C@@H](Cc1c[nH]c2ccccc12)C(=O)NNC(=O)[C@H](Cc1c[nH]c2ccccc12)NC(=O)CNC(=O)[C@@H](CC(C)C)NC(=O)[C@@H](N)Cc1ccc(O)cc1 [(Tyr-D-Leu-Gly-Trp-NH—)2, (Tyr-D-Leu-Gly-Trp-NH-)2] (I: H-Y[dL]GW / II: H-Y[dL]GW; linker I:C-II:C via NHNH)
0.05 micrograms intrathecal
  undesirable effects: No undesirable effects were observed
